In ChEMBL document CHEMBL4765389, “Antimicrobial and anti-inflammatory activities of short dodecapeptides derived from duck cathelicidin: Plausible mechanism of bactericidal action and endotoxin neutralization” (Eur J Med Chem, 2020):

Key:
[1] = test system: Bacteria; assay: Antibacterial activity against Gram positive bacteria assessed as reduction in bacterial growth incubated for 24 hrs by CLSI based broth dilution method; type: functional; conditions: read-out: MIC100
[2] = test system: RAW264.7; assay: Antiinflammatory activity against mouse RAW264.7 cells assessed as reduction in LPS-induced TNFalpha level at 10 uM incubated for 24 hrs by […] relative to control; type: functional
[3] = test system: Salmonella typhimurium; assay: Antibacterial activity against Salmonella typhimurium KCTC 1926 assessed as reduction in bacterial growth incubated for 24 hrs by CLSI based broth dilution method; type: functional, Salmonella enterica subsp. enterica serovar Typhimurium; conditions: Salmonella enterica, read-out: MIC100
[4] = test system: Staphylococcus aureus; assay: Antibacterial activity against Staphylococcus aureus KCTC 1621 assessed as reduction in bacterial growth incubated for 24 hrs by CLSI based broth dilution method; type: functional; conditions: read-out: MIC100
[5] = test system: Pseudomonas aeruginosa; assay: Antibacterial activity against Pseudomonas aeruginosa KCTC 1637 assessed as reduction in bacterial growth incubated for 24 hrs by CLSI based broth dilution method; type: functional; conditions: read-out: MIC100
[6] = test system: Enterococcus faecium; assay: Antibacterial activity against vancomycin-resistant Enterococcus faecium ATCC 51559 assessed as reduction in bacterial growth incubated for 24 hrs by CLSI based broth dilution method; type: functional; conditions: read-out: MIC100
[7] = test system: RAW264.7; assay: Antiinflammatory activity against mouse RAW264.7 cells assessed as reduction in LPS-induced nitrite level at 5 uM incubated for 24 hrs by Griess reagent based assay relative to control; type: functional
[8] = Cytotoxicity against mouse NIH/3T3 cells assessed as reduction in cell viability at 20 uM incubated for 24 hrs by MTT assay; type: cell-based, NIH3T3; conditions: NIH/3T3 cells, read-out: INH
[9] = Therapeutic index, ratio of HC10 for sheep RBC to geometric mean MIC for gram negative bacteria; type: toxicity; conditions: sheep red blood cells, read-out: TI
[10] = test system: Erythrocyte; assay: Hemolytic activity in sheep RBC assessed as reduction in hemoglobin at 256 uM incubated for 1 hr; type: ADME, cell-based, Ovis aries
[11] = test system: Erythrocyte; assay: Hemolytic activity in sheep RBC assessed as reduction in hemoglobin incubated for 1 hr; type: ADME, cell-based, Ovis aries
[12] = Retention time of the compound by RP-HPLC method; type: physicochemical
[13] = test system: Escherichia coli; assay: Antibacterial activity against Escherichia coli KCTC 1682 assessed as reduction in bacterial growth incubated for 24 hrs by CLSI based broth dilution method; type: functional; conditions: read-out: MIC100
[14] = test system: Staphylococcus epidermidis; assay: Antibacterial activity against Staphylococcus epidermidis KCTC 1917 assessed as reduction in bacterial growth incubated for 24 hrs by CLSI based broth dilution method; type: functional; conditions: read-out: MIC100
[15] = test system: Candida albicans; assay: Antifungal activity against Candida albicans KCTC 7121 assessed as reduction in fungal growth incubated for 24 hrs by CLSI based broth dilution method; type: functional; conditions: read-out: MIC100
[16] = Antibacterial activity against multidrug-resistant Pseudomonas aeruginosa CCARM 2095 assessed as reduction in bacterial growth incubated for 24 hrs by CLSI based broth dilution method; type: functional; conditions: read-out: MIC100
[17] = Therapeutic index, ratio of HC10 for sheep RBC to geometric mean MIC for gram positive bacteria; type: toxicity; conditions: sheep red blood cells, read-out: TI
[18] = Therapeutic index, ratio of HC10 for sheep RBC to geometric mean MIC for yeast; type: toxicity; conditions: sheep red blood cells, read-out: TI
[19] = test system: Bacteria; assay: Antibacterial activity against Gram negative bacteria assessed as reduction in bacterial growth incubated for 24 hrs by CLSI based broth dilution method; type: functional; conditions: read-out: MIC100
[20] = test system: Bacillus subtilis; assay: Antibacterial activity against Bacillus subtilis KCTC 3068 assessed as reduction in bacterial growth incubated for 24 hrs by CLSI based broth dilution method; type: functional; conditions: read-out: MIC100
[21] = test system: Candida albicans; assay: Antifungal activity against Candida albicans KCTC 7965 assessed as reduction in fungal growth incubated for 24 hrs by CLSI based broth dilution method; type: functional; conditions: read-out: MIC100
[22] = test system: Saccharomyces cerevisiae; assay: Antifungal activity against yeast assessed as reduction in fungal growth incubated for 24 hrs by CLSI based broth dilution method; type: functional; conditions: read-out: MIC100
[23] = Cytotoxicity against mouse RAW264.7 cells assessed as reduction in cell viability at 20 uM incubated for 24 hrs by MTT assay; type: cell-based; conditions: read-out: INH
[24] = test system: Staphylococcus aureus; assay: Antibacterial activity against methicillin-resistant Staphylococcus aureus CCARM 3095 assessed as reduction in bacterial growth incubated for 24 hrs by CLSI based broth dilution method; type: functional; conditions: read-out: MIC100
[25] = test system: Staphylococcus aureus; assay: Antibacterial activity against methicillin-resistant Staphylococcus aureus CCARM 3090 assessed as reduction in bacterial growth incubated for 24 hrs by CLSI based broth dilution method; type: functional; conditions: read-out: MIC100
[26] = Antibacterial activity against multidrug-resistant Pseudomonas aeruginosa CCARM 2109 assessed as reduction in bacterial growth incubated for 24 hrs by CLSI based broth dilution method; type: functional; conditions: read-out: MIC100
[27] = test system: Staphylococcus aureus; assay: Antibacterial activity against methicillin-resistant Staphylococcus aureus CCARM 3089 assessed as reduction in bacterial growth incubated for 24 hrs by CLSI based broth dilution method; type: functional; conditions: read-out: MIC100

Row | Substance | MIC [1] [µM] | MIC [3] [µM] | MIC [4] [µM] | MIC [5] [µM] | MIC [6] [µM] | cytotoxicity at 24 h, 20 µM [8] [%] | selectivity ratio [9] | Activity [10] | HC10 [11] [µM] | Retention_time [12] [min] | MIC [13] [µM] | MIC [14] [µM] | MIC [15] [µM] | MIC [16] [µM] | selectivity ratio [17] | selectivity ratio [18] | MIC [19] [µM] | MIC [20] [µM] | MIC [21] [µM] | MIC [22] [µM] | also measured
1 | H-LAKKIYRKWKRW-NH2 | 9.7 | 2 | 4 | 4 | 8 | < 10 | 67.4 | Non-Toxic | > 256 | 15.1 | 8 | 4 | 8 | 16 | 52.8 | 64 | 7.6 | 4 | 8 | 8 | inhibition at 10 µM [2]: < 10%; inhibition at 5 µM [7]: < 10%; cytotoxicity at 24 h, 20 µM [23]: < 10%; MIC [24]: 16 µM; MIC [25]: 16 µM; MIC [26]: 8 µM; MIC [27]: 16 µM
2 | H-VPLAIKIYRAWKRR-NH2 | 20 | 8 | 8 | 8 | 16 | < 10 | 26.7 | Non-Toxic | > 256 | 21.7 | 16 | 16 | 16 | 32 | 25.6 | 32 | 19.2 | 4 | 16 | 16 | cytotoxicity at 24 h, 20 µM [23]: < 10%; MIC [24]: 32 µM; MIC [25]: 32 µM; MIC [26]: 32 µM; MIC [27]: 32 µM
3 | H-LAKKIYRAWKRW-NH2 | 13.7 | 2 | 4 | 4 | 16 | < 10 | 36.6 | Non-Toxic | > 256 | 17.1 | 16 | 8 | 8 | 16 | 37.4 | 64 | 14 | 4 | 8 | 8 | inhibition at 10 µM [2]: < 10%; inhibition at 5 µM [7]: < 10%; cytotoxicity at 24 h, 20 µM [23]: < 10%; MIC [24]: 16 µM; MIC [25]: 16 µM; MIC [26]: 32 µM; MIC [27]: 32 µM
